Experimental data: a melting point compilation (Tetko et al.; mined from patent text by program, amines drawn as free bases though some values may be those of a salt)

`CCCCCC(O)C1C(=O)NC(C(=O)SCC(=O)OC)(C(O)C2C=CCCC2)C1(C)O` (stereo not drawn) showed a melting point of 75 °C. Work on `Nc1ccccc1SCC1=NOCN1` yielded a melting point of 108 °C. Work on `O=C1CC2CCCCC2C(=O)C1C(=O)c1ccc(Cl)cc1[N+](=O)[O-]` (stereo not drawn) yielded a melting point of 112 °C. `CCOC(=O)c1c(C(C)(C)O)nc(SC)n1Cc1ccc(-c2ccccc2-c2nnnn2C(c2ccccc2)(c2ccccc2)c2ccccc2)cc1` showed a melting point of 125 to 127 °C. Work on `O=CN1[C@@H](c2cccnc2)SC[C@H]1C(=O)O` yielded a melting point of 250 °C. With `COc1ccc2c(c1)C(=NO)c1c-2c(O)nc2ccccc12` the melting point was 320 to 321 °C. `COc1ccc(-n2c3ccccc3c3cc(C=C(C#N)c4ccc(F)c(F)c4F)ccc32)cc1` gave a melting point of 124 to 126 °C. `O=c1c(O)c(-c2ccccn2)oc2ccc(OCc3ccc(F)cc3)cc12` gave a melting point of 204 to 205 °C. `O=C(O)CNc1nccc(-n2cc(C3c4ccccc4C=Cc4ccccc43)c(=S)[nH]c2=O)n1` showed a melting point of 208 °C. For `CCOP(=O)(CC(Nc1cccnc1)c1cc(OC)c(O)c(OC)c1)OCC` (stereo not drawn), the melting point was 164 to 166 °C. Compound `COc1ccc(C(=O)C2=C(O)C(=O)N(c3nnc(C(F)(F)F)s3)C2c2ccc(C(C)(C)C)cc2)cc1` (stereo not drawn) has a melting point of 271 °C. Compound `O=C1C(=O)c2ccccc2C2=C1SCC1(CCN(Cc3ccc(F)cc3F)CC1)O2` has a melting point of 104 to 107 °C. Compound `CC(C)Oc1c(C2=CC(C)(C)Oc3ccc(C#N)cc32)c(=O)c1=O` has a melting point of 169 to 170 °C. Compound `CC1(C)OC(c2ccc(S(C)(=O)=O)cc2)=C(c2cccnc2)C1=O` has a melting point of 164 to 166 °C. With `CC(C)(C)OC(=O)N[C@H](Cc1ccc(CC(F)(F)C(F)(F)F)cc1)[C@@H](O)c1cccc(Cl)c1` (racemic) the melting point was 156 to 157 °C. Compound `CCC1(c2cccs2)OCC(=O)Nc2ccc(-c3ccc(F)c(C#N)c3)cc21` (stereo not drawn) has a melting point of 197 to 199 °C. Work on `CSc1nccc(-c2ccccc2)n1` yielded a melting point of 87 to 89 °C. `COc1c(C)cnc(CSc2nc3cc(C(F)(F)F)ccc3[nH]2)c1C` gave a melting point of 163 °C. With `CC12CCC3C(CCC4CC(=O)CCC43CO[Si](C)(C)C(C)(C)C)C1CCC2=O` (stereo not drawn) the melting point was 130 to 132 °C. For `Cc1cn2c(N)c(Cl)cc(C(=O)NCC3CCN(CC(C)C)CC3)c2n1`, the melting point was 216 to 219 °C. In the case of `CCCN1CC[C@@H]2CC(=O)c3cc(F)ccc3[C@@H]2C1` (relative stereo), the melting point was greater than 220 °C. With `Cc1cc(C#Cc2cn(-c3ccc(F)cc3)c(C)n2)ccn1` the melting point was 151 °C. `O=C(CC(=O)C(F)F)c1ccc(Br)s1` showed a melting point of 83.5 to 85 °C. `CCCN(CCC)c1nsc(NC(=O)NC)c1C(N)=O` showed a melting point of 168 to 169 °C. Compound `O=C(CCN1CCN(c2ccc(F)cc2)CC1)c1cnn2c1CCCC2` has a melting point of 141 to 142 °C. `Clc1ccc2c(c1)NC(c1ccncc1)c1cc(Cl)ccc1O2` (stereo not drawn) gave a melting point of 202 to 205 °C. `CN1C(=O)C(=Cc2cc(O)c(O)c([N+](=O)[O-])c2)SC1=S` gave a melting point of 274 to 276 °C. `CC(O)c1ccc(CCNS(=O)(=O)c2ccccc2)cc1` (stereo not drawn) showed a melting point of 98 to 100 °C. For `CCCCNC(=O)[C@@H]1C[C@]2(NC(=O)N(CCCCl)C2=O)c2cc(F)ccc2O1`, the melting point was 148 to 150 °C. `CCOC(=O)c1c(N=[N+]=[N-])cc(C(F)(F)F)nc1C(F)(F)F` showed a melting point of 63 to 64.5 °C. `CC(C)(O)CCCCc1ccc2ccccc2c1O` gave a melting point of 101 to 102 °C. With `CN1CC(CCN2CCN(c3ccccc3F)CC2)OC1=O` (stereo not drawn) the melting point was 80 to 82 °C. Compound `N#CNC=Nc1ccc(-c2c[nH]cn2)cc1` has a melting point of 234 to 235 °C. Compound `CC(C)/C=C1\NC(=O)CC1=O` has a melting point of 134 to 136 °C. `NCc1cc2c(Oc3ccc(Cl)cc3)cncc2s1` showed a melting point of 78.6 to 79.8 °C. Compound `Cc1nc2c3c(c(C(=O)N4CCC(O)C4)cc2n1C)CCC(c1ccccc1)O3` (stereo not drawn) has a melting point of 322 to 324 °C. `CCc1ccc(C(C)(C)C)c(O)c1C(=O)Nc1ccc(S(=O)(=O)C(F)(F)F)cc1Cl` gave a melting point of 126 to 127 °C. `O=C(O)c1cn(C2CC2)c2cc(N3CCNC(CF)C3)c(F)cc2c1=O` (stereo not drawn) gave a melting point of 202 to 203 °C. Compound `C=CCC(C#N)(C#N)Cc1ccc(Br)cc1` has a melting point of 61.7 °C. `COC(=O)C(C)c1ccc2c(c1)CC(=O)c1ccccc1S2` (stereo not drawn) gave a melting point of 81 to 82 °C. With `NS(=O)(=O)NC(=O)N1C[C@H](NC(=O)Cc2ccccc2)C1=O` the melting point was 137 °C. Compound `O=C(Cc1ccncn1)c1ccc(Cl)cc1` has a melting point of 110 °C. In the case of `O=C1CC(Br)C(=O)N1c1ccc(F)cc1` (stereo not drawn), the melting point was 154 °C. Work on `CCN(CC)C(=O)CCc1ccc(O)c(N)c1` yielded a melting point of 92 to 93 °C. `O=C(CCCCOc1ccc(O)cc1)C(F)(F)F` showed a melting point of 63 to 64 °C. With `CCC(=Cc1ccc(C(=O)O)cc1Cl)[N+](=O)[O-]` the melting point was 179 to 180 °C. In the case of `CCC(CC)Nc1c(C)cnc(Oc2c(C)cc(Cl)cc2C)c1N`, the melting point was 72 to 74 °C. In the case of `CCN1c2c(occ(C=O)c2=O)-c2ccccc2S1(=O)=O`, the melting point was 160 to 162 °C. Work on `Cc1nnc2n1-c1sc(Cl)cc1C(c1ccccn1)=NC2` yielded a melting point of 174 to 176 °C. Work on `CCCCCCCCCCCCCCCCCCNc1nc(NCC(O)C2CC(C)(C)NC(C)(C)C2)nc(NCC(O)C2CC(C)(C)NC(C)(C)C2)n1` (stereo not drawn) yielded a melting point of 104 to 107 °C. `CC1CC(=O)NN=C1c1ccc(NC(=O)OCc2cccc(Cl)c2)cc1` (stereo not drawn) showed a melting point of 165 to 166 °C. Work on `O=C1c2c(O)ccc(O)c2C(=O)c2c(NCCN(CCO)CCO)ccc(NCCN(CCO)CCO)c21` yielded a melting point of 134 to 136 °C. For `COc1cccc(C2CCCN(C(=O)N(C)O)C2)c1` (stereo not drawn), the melting point was 96 to 98 °C. Work on `CC(C)(C)NS(=O)(=O)c1c(C(F)F)nsc1OCC(F)(F)F` yielded a melting point of 105 to 106 °C. `CCOC(=O)c1c(C(=O)C(=O)OC)c2cc(Cl)ccc2n1C` gave a melting point of 119 to 120 °C. Work on `Cn1nc(Cl)cc(Nc2ccccn2)c1=O` yielded a melting point of 201 to 202 °C. `CC1(C)CN(C2CC3(C)C(CCC4C3CCC3(C)C(C(=O)CSC#N)CCC43)CC2O)CCO1` (stereo not drawn) gave a melting point of 166 °C. For `O=C(Nc1ccc2ccc(Cl)nc2n1)c1ccc(Cl)s1`, the melting point was 275 °C. For `O=C(O)c1cnn2c(C(F)(F)F)cc(-c3ccc(Cl)c(Cl)c3)nc12`, the melting point was 264 °C. For `N#Cc1ccc(F)cc1-c1ccco1`, the melting point was 55 to 56 °C. For `C[Si](C)(C)C(N)Cc1ccccc1` (stereo not drawn), the melting point was 67 to 68 °C. For `CCC/C=C/c1ccc(C#CC(C)(C)O)cc1`, the melting point was 65 °C. `CC(=O)Oc1ccc(C(=NNc2cccc([N+](=O)[O-])c2)c2ccc(OC(C)=O)cc2)cc1` showed a melting point of 88 to 90 °C. Work on `Fc1ccccc1Cn1cnc2c(Nn3cccc3)ncnc21` yielded a melting point of 204 to 206 °C. For `COc1cc2c3ccc(OC)c(OC)c3n(Cc3ccc(C#N)cc3)c2cc1OC`, the melting point was 147 to 148 °C. `COc1ccc(NN=C2CCCCC2=O)cc1` showed a melting point of 177 °C. `Cc1ccc(C(=O)Nc2ccc3ccc(Cl)nc3n2)nn1` gave a melting point of 258 °C. For `CC(C)(C)c1cc(NC(=O)NNC(=O)c2ccc(N)cc2)cc(C(C)(C)C)c1O`, the melting point was 245 to 246 °C. `COc1cc(N)nc(N2CCOCC2)n1` showed a melting point of 162 to 164 °C. Compound `O=C(Nc1ccc2c(c1)OCCO2)NC12CC3CC(CC(C3)C1)C2` has a melting point of 230 to 236 °C. `COc1cc(OC)c(/C=C/S(=O)(=O)Cc2cnc(OC)c([N+](=O)[O-])c2)c(OC)c1` showed a melting point of 183 to 186 °C. With `O=C1c2cc3ccccc3c(-c3ccccc3)c2C(=O)N1C1CC1` the melting point was 198 °C. `O=Cc1cccc(NC(=O)c2ccccc2)c1` gave a melting point of 122 to 123 °C. In the case of `CCOc1ccc(-c2cc(C(F)(F)F)n3ncc(-c4cccnc4)c3n2)cc1C(F)(F)F`, the melting point was 178 °C. `COc1ccccc1C(=C1CN(C(c2ccccc2)c2ccccc2)C1)S(C)(=O)=O` showed a melting point of 204 °C. Work on `CC(=O)NCCCc1ccc(OC2CCc3cc(Cl)ccc32)cc1` (stereo not drawn) yielded a melting point of 111 to 112 °C. `CC(C)(COC(=O)COc1ccc(C(=O)CN2Cc3cc(C(N)=S)ccc3C2=O)cc1)NS(=O)(=O)c1cccnc1` gave a melting point of 197 to 198 °C. `Brc1cc2c(cn1)[nH]c1ccccc12` gave a melting point of 300 °C. In the case of `O=C(O)COc1ccc(C2=CC(=O)CC(c3ccccc3F)C2)c(Cl)c1Cl` (stereo not drawn), the melting point was 187 to 190 °C. With `Cc1ccc2c(c1)oc1c(C(=O)O)nn(-c3ccc(Cl)cc3Cl)c12` the melting point was 228 to 230 °C. `COc1cc2c(c(C(C)C)c1OC)C(=O)NS2(=O)=O` showed a melting point of 186 to 188 °C. `CC(=O)ON=Cc1cccc2c1C=Cc1ccccc1S2` gave a melting point of 144 to 145 °C. `CCCn1c(COC)nc2c(N)nc3ccc(OCCCN4CCOCC4)cc3c21` showed a melting point of 193 to 196 °C. In the case of `CS(=O)(=O)N(Cc1cccnc1)c1ccc(Cl)cc1`, the melting point was 138 to 140 °C. Work on `COc1ccc2sc(C(=O)OCC(C)(C)C(=O)C(C)(C)C)cc2c1` yielded a melting point of 74 to 75.5 °C. In the case of `O=c1cc(N2CCOCC2)cc(-c2ccccc2)o1`, the melting point was 161 to 162 °C. Compound `O=C1c2cccc3cc(OS(=O)(=O)C(F)(F)F)cc(c23)C(=O)N1O` has a melting point of 167 to 169 °C. For `O=C1c2ccc(O)cc2CCC1Cc1ccccc1` (stereo not drawn), the melting point was 160 to 162 °C. `Nc1ncnc2sc(CCO)c(-c3ccc(NC(=O)Nc4cccc(C(F)(F)F)c4)cc3)c12` showed a melting point of 155 to 158 °C. `CC(F)C(C)(N)C(N)=O` (stereo not drawn) gave a melting point of 81 °C. In the case of `COC(=O)Cc1ccc(CNC(=O)C2Cc3ccccc3N2S(=O)(=O)c2ccc(-c3ccc(F)cc3F)cc2)cc1` (stereo not drawn), the melting point was 68 to 72 °C. Compound `Cn1nc(O)ccc1=S` has a melting point of 203 °C. For `Clc1ccc(-c2nc(COCc3ccccc3)ns2)nn1`, the melting point was 109 to 110 °C. `CSc1ccc2ncc(N)c(-c3ccccc3)c2c1` showed a melting point of 135 to 137 °C. Compound `O=C(O)CNC(=O)c1nc2ccc(OCC(F)(F)C(F)(F)C(F)(F)C(F)F)cc2cc1O` has a melting point of 170 to 172 °C. With `Cc1csc(Nc2cc3ccccc3cn2)n1` the melting point was 212 to 215 °C. For `COc1ccc2c(c1)-c1noc(O)c1CC2`, the melting point was 135 to 138 °C. Compound `CN(C)C(=O)Nc1ccc(Oc2ccc3sncc3c2)c(Cl)c1` has a melting point of 149 °C. `CCCCOC(=O)n1c2ccccc2c2nc3ccccc3cc21` gave a melting point of 168 °C. In the case of `COc1ccc2cc(Nc3ccc(O)cc3)ccc2c1`, the melting point was 153 to 154 °C. For `CCOC(=O)COc1cc(O)c(C(=O)CN2Cc3cc(C(N)=S)ccc3C2=O)cc1OCC(=O)OCC`, the melting point was 142 to 143 °C. `O=C1c2c(O)cccc2C(SCCS)c2cccc(O)c21` gave a melting point of 133 to 134 °C. In the case of `Cc1ccc2c(Sc3ccc(Cl)c(Cl)c3)c(C(=O)O)[nH]c2c1`, the melting point was 252 to 255 °C.
